How the values were obtained:
[1] = test system: Lamina I/II spinal cord neurons; experiment: Lamina assay, current-clamp recordings in spinal cord slices; assay type: cell-based, rat; settings: Lamina I and II neurons
From the text: Male Wistar rats (P6 to P9 for voltage-clamp and P15 to P18 for current-clamp recordings) were anaesthetized through intraperitoneal injection of Inactin (Sigma). The spinal cord was then rapidly dissected out and placed in an ice-cold solution protective sucrose solution containing (in mM): 50 sucrose, 92 NaCl, 15 D-Glucose, 26 NaHCO3, 5 KCl, 1.25 NaH2PO4, 0.5 CaCl2, 7 MgSO4, 1 kynurenic acid, and bubbled with 5% CO2/95% O2. The meninges, dura, and dorsal and ventral roots were then removed from the lumbar region of the spinal cord under a dissecting microscope. The “cleaned” lumbar region of the spinal cord was glued to the vibratome stage and immediately immersed in ice cold, bubbled, sucrose solution. For current-clamp recordings, 300 to 350 μm parasagittal slices were cut to preserve the dendritic arbour of lamina I neurons, while 350 to 400 μm transverse slices were prepared for voltage-clamped […] channel recordings. Slices were allowed to recover for 1 hour at 35° C. in Ringer solution containing (in mM): 125 NaCl, 20 D-Glucose, 26 NaHCO3, 3 KCl, 1.25 NaH2PO4, 2 CaCl2, 1 MgCl2, 1 kynurenic acid, 0.1 picrotoxin, bubbled with 5% CO2/95% O2. The slice recovery chamber was then returned to room temperature (20 to 22° C.) and all recordings were performed at this temperature.
Neurons were visualized using IR-DIC optics (Zeiss Axioskop 2 FS plus, Gottingen, Germany), and neurons from lamina I and the outer layer of lamina II were selected based on their location relative to the substantia gelatinosa layer. Neurons were patch-clamped using borosilicate glass patch pipettes with resistances of […] Current-clamp recordings of lamina I/II neurons in the intact slice, the external recording solution was the above Ringer solution, while the internal patch pipette solution contained (in mM): 140 KGluconate, 4 NaCl, 10 HEPES, 1 EGTA, 0.5 MgCl2, 4 MgATP, 0.5 Na2GTP, adjusted to pH 7.2 with 5 M KOH and to 290 mOsm with D-Mannitol (if necessary). […]

[2] = target: T1, α1G (CaV 3.1) (Homo sapiens, UniProt O43497); experiment: T-type calcium channel block, whole cell patch clamp; assay type: cell-based; settings: HEK cells, mainly non-inactivated protocol; values above 10,000 nM represented as 10000
T1 construct: expressed in transfected cells; host or cells: HEK 293
T1 sequence (O43497 whole entry): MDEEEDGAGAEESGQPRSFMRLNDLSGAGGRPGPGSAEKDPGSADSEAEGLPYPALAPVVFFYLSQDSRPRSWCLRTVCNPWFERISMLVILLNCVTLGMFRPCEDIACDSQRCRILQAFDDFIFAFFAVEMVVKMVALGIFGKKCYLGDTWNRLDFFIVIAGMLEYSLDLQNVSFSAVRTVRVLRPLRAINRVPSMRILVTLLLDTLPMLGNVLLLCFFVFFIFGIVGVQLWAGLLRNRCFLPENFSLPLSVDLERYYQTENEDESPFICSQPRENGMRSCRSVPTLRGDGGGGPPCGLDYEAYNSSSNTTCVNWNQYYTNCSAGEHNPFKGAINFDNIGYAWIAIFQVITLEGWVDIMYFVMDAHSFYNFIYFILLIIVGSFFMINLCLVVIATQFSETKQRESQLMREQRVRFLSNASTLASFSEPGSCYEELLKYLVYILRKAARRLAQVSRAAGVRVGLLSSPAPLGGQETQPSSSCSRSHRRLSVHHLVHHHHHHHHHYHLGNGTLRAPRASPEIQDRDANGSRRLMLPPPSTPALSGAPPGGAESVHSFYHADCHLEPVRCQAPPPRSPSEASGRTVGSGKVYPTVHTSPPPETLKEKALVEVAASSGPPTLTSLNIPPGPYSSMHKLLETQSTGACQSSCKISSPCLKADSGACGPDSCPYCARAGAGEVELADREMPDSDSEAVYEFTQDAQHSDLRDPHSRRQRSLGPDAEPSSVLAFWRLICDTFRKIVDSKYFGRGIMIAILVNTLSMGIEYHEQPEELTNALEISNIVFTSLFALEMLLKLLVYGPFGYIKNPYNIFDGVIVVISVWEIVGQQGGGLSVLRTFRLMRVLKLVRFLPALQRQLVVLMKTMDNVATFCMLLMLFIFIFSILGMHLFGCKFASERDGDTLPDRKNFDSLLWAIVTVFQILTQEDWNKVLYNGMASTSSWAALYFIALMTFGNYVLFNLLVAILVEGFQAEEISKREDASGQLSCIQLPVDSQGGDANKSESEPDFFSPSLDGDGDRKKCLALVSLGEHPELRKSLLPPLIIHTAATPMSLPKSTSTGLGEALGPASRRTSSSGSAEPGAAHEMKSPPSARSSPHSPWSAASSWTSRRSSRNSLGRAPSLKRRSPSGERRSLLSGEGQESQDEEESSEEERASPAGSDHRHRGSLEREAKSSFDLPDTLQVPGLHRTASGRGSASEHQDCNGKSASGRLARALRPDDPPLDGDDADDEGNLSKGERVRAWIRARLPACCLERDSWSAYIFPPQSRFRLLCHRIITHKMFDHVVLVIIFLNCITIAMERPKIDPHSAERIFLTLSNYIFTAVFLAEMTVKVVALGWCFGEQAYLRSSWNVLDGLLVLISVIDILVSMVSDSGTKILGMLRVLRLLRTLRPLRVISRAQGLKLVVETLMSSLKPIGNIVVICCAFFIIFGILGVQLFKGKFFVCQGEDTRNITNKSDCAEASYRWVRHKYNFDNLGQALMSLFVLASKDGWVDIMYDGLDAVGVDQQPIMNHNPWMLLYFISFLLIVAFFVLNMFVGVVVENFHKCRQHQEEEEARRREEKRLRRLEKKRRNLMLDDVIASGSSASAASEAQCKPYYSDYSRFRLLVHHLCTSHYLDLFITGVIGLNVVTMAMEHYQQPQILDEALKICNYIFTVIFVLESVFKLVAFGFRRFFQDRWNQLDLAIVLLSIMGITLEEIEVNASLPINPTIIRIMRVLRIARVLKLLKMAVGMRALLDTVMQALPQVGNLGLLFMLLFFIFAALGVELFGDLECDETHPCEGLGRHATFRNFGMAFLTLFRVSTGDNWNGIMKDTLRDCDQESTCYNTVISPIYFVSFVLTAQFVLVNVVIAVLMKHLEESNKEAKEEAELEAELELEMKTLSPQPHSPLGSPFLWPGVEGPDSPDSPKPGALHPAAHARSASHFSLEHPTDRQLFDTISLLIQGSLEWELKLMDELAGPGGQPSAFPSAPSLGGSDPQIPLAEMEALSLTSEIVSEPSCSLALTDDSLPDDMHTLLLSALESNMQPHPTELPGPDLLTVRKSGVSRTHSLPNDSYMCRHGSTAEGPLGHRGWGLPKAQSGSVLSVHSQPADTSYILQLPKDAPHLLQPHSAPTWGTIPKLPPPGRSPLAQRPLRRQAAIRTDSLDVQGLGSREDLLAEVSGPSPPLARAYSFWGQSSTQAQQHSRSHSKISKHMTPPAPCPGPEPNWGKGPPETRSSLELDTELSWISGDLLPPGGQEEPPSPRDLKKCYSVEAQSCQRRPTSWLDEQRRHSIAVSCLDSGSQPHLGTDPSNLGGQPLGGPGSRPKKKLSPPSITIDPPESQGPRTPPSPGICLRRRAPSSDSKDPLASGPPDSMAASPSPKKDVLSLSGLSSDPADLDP
In short: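 HEK293 cells stably expressing human T-type channels, whole-cell patch clamp; compounds in external solution with 0.1-0.01% DMSO, applied by gravity. Mainly non-inactivating protocol: holding −110 mV, 1 s pre-pulse −100 mV, 50 ms test pulse −40 mV (inactivated protocol uses ~−85 mV pre-pulse); IC50 reported.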

[3] = target: hERG K+ channel (Homo sapiens, UniProt Q12809); experiment: hERG activity
hERG K+ channel, sequence (Q12809 whole entry): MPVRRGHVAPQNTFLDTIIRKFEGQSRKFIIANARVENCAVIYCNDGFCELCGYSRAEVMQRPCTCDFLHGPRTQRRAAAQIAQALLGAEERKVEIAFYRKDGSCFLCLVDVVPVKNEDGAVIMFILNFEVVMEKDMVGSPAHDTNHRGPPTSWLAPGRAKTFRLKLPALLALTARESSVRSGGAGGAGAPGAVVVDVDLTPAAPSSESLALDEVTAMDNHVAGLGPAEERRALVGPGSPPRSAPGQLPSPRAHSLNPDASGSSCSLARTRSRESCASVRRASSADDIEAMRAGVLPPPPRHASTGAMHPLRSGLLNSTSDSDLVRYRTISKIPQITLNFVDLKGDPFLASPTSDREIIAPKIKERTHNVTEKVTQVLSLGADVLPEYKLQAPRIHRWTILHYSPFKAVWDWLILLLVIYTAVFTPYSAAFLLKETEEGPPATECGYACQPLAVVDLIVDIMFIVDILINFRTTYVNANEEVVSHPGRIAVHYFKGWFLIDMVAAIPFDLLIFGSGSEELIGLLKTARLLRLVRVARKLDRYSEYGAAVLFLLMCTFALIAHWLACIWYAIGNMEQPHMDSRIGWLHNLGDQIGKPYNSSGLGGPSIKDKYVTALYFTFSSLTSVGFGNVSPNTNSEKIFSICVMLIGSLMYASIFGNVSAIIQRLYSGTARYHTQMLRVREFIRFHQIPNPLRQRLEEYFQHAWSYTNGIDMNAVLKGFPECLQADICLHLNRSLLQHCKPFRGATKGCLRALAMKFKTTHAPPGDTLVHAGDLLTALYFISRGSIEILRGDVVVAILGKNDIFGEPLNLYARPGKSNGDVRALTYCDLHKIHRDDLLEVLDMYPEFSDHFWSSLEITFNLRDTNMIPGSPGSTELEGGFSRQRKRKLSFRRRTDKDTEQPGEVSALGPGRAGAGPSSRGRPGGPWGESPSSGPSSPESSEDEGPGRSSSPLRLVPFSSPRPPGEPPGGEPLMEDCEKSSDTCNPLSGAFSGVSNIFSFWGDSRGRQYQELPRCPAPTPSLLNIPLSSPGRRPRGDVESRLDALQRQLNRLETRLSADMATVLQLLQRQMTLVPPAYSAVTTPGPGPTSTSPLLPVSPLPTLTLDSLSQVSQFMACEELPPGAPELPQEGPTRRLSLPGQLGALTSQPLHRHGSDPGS
From the text: (§1) In addition to being able to modulate a particular calcium channel (e.g., CaV 3.1, CaV 3.2, or CaV 3.3), it may be desirable that the compound has very low activity with respect to the hERG K^+ channel, which is expressed in the heart: compounds that block this channel with high potency may cause reactions which are fatal. See, e.g., Bowlby et al., “hERG (KCNH2 or KV11.1 K^+ Channels: Screening for Cardiac Arrhythmia Risk,” Curr. Drug Metab. 9(9):965-70 (2008)). […] Such compounds may be particularly useful in the methods described herein.

[4] = target: CYP2C9 (Homo sapiens, UniProt P11712); experiment: cytochrome inhibition; assay type: in vitro ADME; settings: read-out: inhibition of cytochrome 2C9
CYP2C9, sequence (P11712 whole entry): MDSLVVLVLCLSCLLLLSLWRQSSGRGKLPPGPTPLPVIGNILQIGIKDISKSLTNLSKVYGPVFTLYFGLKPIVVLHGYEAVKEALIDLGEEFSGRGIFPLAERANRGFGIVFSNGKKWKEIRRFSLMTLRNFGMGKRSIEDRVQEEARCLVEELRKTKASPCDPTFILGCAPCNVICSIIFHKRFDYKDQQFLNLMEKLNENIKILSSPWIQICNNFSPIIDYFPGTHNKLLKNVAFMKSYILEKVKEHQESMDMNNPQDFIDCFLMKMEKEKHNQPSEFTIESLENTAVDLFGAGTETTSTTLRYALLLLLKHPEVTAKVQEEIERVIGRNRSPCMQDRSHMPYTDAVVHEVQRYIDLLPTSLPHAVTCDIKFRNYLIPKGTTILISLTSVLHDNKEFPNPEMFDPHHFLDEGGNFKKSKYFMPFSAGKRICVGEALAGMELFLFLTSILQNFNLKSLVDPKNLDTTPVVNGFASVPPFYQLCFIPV
From the text: as §1

[5] = target: CYP3A4 (Homo sapiens, UniProt P08684); experiment: cytochrome inhibition; assay type: in vitro ADME; settings: read-out: inhibition of cytochrome 3A4
CYP3A4, sequence (P08684 whole entry): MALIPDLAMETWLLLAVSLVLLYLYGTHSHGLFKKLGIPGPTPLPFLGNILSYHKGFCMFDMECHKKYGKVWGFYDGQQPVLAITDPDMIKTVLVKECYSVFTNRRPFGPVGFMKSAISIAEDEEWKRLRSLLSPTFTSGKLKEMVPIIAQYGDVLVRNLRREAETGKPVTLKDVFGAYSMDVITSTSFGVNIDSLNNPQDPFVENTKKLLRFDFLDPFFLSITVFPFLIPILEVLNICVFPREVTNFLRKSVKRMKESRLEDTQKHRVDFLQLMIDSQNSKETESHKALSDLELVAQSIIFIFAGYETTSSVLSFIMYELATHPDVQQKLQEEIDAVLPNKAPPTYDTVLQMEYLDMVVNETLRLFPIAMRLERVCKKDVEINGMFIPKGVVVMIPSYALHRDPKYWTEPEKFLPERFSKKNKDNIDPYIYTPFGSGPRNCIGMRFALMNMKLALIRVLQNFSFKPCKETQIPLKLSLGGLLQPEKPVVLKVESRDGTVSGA
From the text: as §1

[6] = target: CYP2D6 (Homo sapiens, UniProt P10635); experiment: cytochrome inhibition; assay type: in vitro ADME; settings: read-out: inhibition of cytochrome 2D6
CYP2D6, sequence (P10635 whole entry): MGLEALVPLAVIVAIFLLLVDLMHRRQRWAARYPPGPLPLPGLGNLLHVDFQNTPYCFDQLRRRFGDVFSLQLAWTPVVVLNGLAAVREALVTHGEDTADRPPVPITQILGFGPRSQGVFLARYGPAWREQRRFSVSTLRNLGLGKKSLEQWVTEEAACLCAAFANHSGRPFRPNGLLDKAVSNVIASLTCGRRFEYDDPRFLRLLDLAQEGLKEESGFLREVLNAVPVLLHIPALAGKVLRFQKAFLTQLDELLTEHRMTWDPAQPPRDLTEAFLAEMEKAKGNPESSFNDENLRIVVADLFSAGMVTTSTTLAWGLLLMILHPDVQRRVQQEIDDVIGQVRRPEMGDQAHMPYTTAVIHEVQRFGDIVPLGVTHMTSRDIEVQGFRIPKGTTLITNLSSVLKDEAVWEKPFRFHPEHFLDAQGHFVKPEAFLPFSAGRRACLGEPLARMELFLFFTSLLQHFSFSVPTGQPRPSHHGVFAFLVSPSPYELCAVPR

## N-(3,5- bis(trifluoromethyl) phenyl)-2-(1- (piperidine-3- carbonyl)piperidin-4- yl)acetamide [Compound 2]
[1]
  % Spike Change Mean: −57.2%

## N[C@@H]1CCCC[C@H]1C(=O)N1CCC(CC(=O)Nc2cc(C(F)(F)F)cc(C(F)(F)F)c2)CC1 (racemic) [Compound 3, trans-2-(1-(2-aminocyclohexanecarbonyl)piperidin-4-yl)-N-(3,5-bis(trifluoromethyl)phenyl)acetamide]
[2]
  IC50: > 10 µM
[3]
  hERG activity: negligible
[4]
  inhibition at 10 micromolar: < 10%
[5]
  inhibition at 10 micromolar: < 10%
[6]
  inhibition at 10 micromolar: < 10%
[1]
  % Spike Change Mean: −51.1%

From patent US20120220564A1, “SELECTIVE CALCIUM CHANNEL MODULATORS” (Zalicus Pharmaceuticals Ltd., priority 2009, published 2012)
